Experimental data published in patent US20020009509A1, “Soya extract containing lipids, process for its production, and pharmaceutical and cosmetic composition” (priority 1999, published 2002).

Test system: dry skin
Test: Skin hydration of dry skin measured as electric capacitance of the horny layer (Corneometer CM 820)
Type: in vivo
Settings: 1.5% extract solution or 2% collagen
Procedure: The treatment according to the invention was with an emulsion, in water, containing the extract according to the invention and 2% hydroxyethylcellulose. Skin hydration was measured as electric capacitance of the horny layer using a commercially available device (Corneometer CM 820, Courage+ Kazaka, Cologne, Germany). The mean value of five consecutive measurements was determined and recorded as the measured value. The electric capacitance is expressed by means of an arbitrary scale ranging from 0 to 100 units. Groups of 10 subjects were used.

Substance: collagen
- Hydration (units), After 60 min (60 min after treatment, arbitrary scale 0 to 100 units, groups of 10 subjects, *P < 0.05, **P < 0.001): 57.7 ± 0.1* units
- Hydration, Change % (after 60 min versus starting value): 35.6%
- Hydration (units), Starting value (before treatment, arbitrary scale 0 to 100 units, groups of 10 subjects): 42.7 ± 0.4 units
